# Source: US12685733B2, “Indole molecules and use thereof in the inhibition of DNA polymerases” (BioVentures, LLC, priority 2019, dated 2026)
# Assays:
# [1] = target: T1, hpol η (Homo sapiens, UniProt Q9Y253); assay: Gel-based primer extension assay; format: biochemical; conditions: 10 μM; 2 nM hpol η
# T1 construct: hpol η (residues 1-437); made in house
# T1 sequence (Q9Y253 1-437): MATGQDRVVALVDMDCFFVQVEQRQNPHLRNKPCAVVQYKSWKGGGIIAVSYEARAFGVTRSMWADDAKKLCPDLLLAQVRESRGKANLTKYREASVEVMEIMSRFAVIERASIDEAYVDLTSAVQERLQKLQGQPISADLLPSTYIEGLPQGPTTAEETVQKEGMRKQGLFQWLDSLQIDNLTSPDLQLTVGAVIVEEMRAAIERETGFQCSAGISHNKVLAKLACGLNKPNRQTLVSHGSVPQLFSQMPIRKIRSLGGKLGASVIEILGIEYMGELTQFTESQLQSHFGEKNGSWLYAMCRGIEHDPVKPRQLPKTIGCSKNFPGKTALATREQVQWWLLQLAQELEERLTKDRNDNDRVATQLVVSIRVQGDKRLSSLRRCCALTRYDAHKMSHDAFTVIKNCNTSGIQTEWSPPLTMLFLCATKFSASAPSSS
# [2] = system: hpol κ-deficient HAP-1 cells; assay: supF mutagenesis assay; conditions: 1 μM IAG-10, 24 h
# Protocol: HAP-1 hpol κ-proficient and hpol κ-deficient cells were cultured in 10 cm dishes to ~80% confluency in Iscove's modified Dulbecco's medium (Invitrogen) containing 10% (v/v) FBS supplemented with Ix antibiotic antimycotic solution (Sigma). They were transfected with unmodified (control) and methylmethanesulfonate (MMS)-modified pSP189 plasmid harboring the supF gene either in the absence or presence of 1 μM IAG-10. For plasmid modification with MMS, the pSP189 plasmid was first incubated with 100 mM MMS in 10 mM HEPES buffer (pH 7.5) containing 50 mM KCl, 5 mM MgCl2, and 1 mM dithiothreitol at RT for 1 h. The MMS-modified plasmid was then purified by ethanol precipitation and used in subsequent transfections, similar to the unmodified plasmid. […] The recovered plasmids (75-100 ng) were then transformed into E. coli MBM7070 strain by electroporation, and the transformed bacterial cells were plated on LB-agar plates containing 100 μg/mL ampicillin, 1 mM isopropyl-I-thio-fi-Dgalactopyranoside (IPTG) and 100 μg/mL X-gaL The resulting blue (nonmutated) and white (mutated) colonies were counted. The mutation frequency was calculated as the ratio of mutant (white) colonies to total (blue+white) colonies. At least 10 000 colonies were counted for each condition, and the results reported represent the mean (±SD) of experiments performed in biological triplicate.
# [3] = target: T2, Dpo1 (Saccharolobus solfataricus, UniProt P26811); assay: Fluorescence-based polymerase assay, other pol families; format: biochemical, Sulfolobus solfataricus; conditions: 10 μM; 25 nM Dpo1 (B-family)
# T2 construct: made in house
# T2 sequence (P26811 1-882): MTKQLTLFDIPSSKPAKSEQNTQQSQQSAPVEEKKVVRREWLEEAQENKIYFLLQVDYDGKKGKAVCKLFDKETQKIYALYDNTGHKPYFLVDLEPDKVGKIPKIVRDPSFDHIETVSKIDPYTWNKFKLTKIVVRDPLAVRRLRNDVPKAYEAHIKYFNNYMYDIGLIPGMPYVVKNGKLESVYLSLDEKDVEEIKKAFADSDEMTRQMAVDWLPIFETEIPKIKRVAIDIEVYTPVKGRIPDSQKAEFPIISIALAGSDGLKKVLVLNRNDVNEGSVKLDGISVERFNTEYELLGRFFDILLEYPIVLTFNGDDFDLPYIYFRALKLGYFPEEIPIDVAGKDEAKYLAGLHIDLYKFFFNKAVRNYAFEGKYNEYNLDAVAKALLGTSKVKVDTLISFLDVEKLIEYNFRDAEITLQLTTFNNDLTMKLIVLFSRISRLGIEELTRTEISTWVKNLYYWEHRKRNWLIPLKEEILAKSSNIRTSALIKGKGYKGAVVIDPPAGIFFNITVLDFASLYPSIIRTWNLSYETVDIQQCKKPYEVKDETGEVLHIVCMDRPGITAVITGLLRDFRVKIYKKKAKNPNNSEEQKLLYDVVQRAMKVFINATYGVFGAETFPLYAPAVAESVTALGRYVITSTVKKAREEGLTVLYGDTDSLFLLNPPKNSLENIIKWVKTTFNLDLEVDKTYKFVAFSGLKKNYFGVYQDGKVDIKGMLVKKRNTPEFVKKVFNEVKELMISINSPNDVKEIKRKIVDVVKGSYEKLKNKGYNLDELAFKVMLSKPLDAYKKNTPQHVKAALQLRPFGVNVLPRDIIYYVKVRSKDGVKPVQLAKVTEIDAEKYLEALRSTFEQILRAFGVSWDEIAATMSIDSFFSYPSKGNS
# [4] = target: T3, hpol ι (Homo sapiens, UniProt Q9UNA4); assay: Gel-based primer extension assay; format: biochemical; conditions: 10 μM; 10 nM hpol ι
# T3 construct: hpol ι (residues 1-446); made in house
# T3 sequence (Q9UNA4 1-446): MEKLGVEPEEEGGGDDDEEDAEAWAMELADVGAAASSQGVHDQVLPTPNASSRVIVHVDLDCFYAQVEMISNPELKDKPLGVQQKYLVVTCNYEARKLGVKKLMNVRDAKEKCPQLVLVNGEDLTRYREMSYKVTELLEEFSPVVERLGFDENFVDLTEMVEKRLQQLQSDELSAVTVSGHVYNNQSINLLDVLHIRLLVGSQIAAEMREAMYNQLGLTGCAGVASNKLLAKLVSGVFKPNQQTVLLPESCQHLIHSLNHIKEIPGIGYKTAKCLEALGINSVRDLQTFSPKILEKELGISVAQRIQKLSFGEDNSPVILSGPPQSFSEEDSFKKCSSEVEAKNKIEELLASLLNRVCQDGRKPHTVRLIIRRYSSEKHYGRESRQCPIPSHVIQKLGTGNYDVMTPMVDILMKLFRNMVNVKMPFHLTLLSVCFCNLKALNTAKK
# [5] = system: T98G spheroids; assay: Spheroid growth rate assay; format: cell-based; conditions: 50 nM or 500 nM, with or without TMZ, 12 days
# Protocol: Cell, spheroid and organoid culture. Grade IV glioma cells (T98G) were obtained from the American Type Culture Collection (ATCC). MCF7 cells were a kind gift from Dr. Timothy Chambers (UAMS). The POLKKO T98G cell lines were generated using CRISPR-Cas9 and validated by immunoblotting (data not shown). For normal culture, these cells were grown in minimum essential media (MEM) containing 10% fetal bovine serum (FBS), 1% (v/v) antibiotic/[…] and incubated at 37° C. in 5% CO2.
# For spheroid culture, 24 h prior to plating cells, dishes were coated in 1× poly-HEMA (0.6 g poly-2-hydroxyethyl methacrylate into 50 mL 95% EtOH) under sterile conditions and allowed to dry overnight. Coated dishes were hydrated in 1×PBS for 20 min prior to plating. Spheroids were cultured in NeuroCult NS-A basal medium containing NeuroCult NS-A proliferation supplement, 20 ng/mL human recombinant epidermal growth factor (EGF), 10 ng/mL human recombinant basic fibroblast growth factor (bFGF), and 0.0002% heparin (referred to as NS-A complete medium). […]
# Spheroid growth rate assay. […] Spheroids with a diameter of 50 µm or larger were counted as true spheroids and an average size was determined for each well. Changes in average size for each well over the growth time was recorded and used to generate the growth rate. […]
smiles,measurement,setting,value
"Cl.[H]/N=C(\N)NN=Cc1cn(C(=O)c2cccc3ccccc23)c2ccc(Cl)cc12 [IAG-10, (E)-2-((1-(1-naphthoyl)-5-chloro-1H-indol-3-y1)methylene)hydrazine-1-carboximidamide hydrochloride]",polymerase activity relative to DMSO control,[1],only hpol κ was inhibited
same,mutation frequency for control or MMS-damaged DNA,[2],did not alter the mutation frequency
same,polymerase activity relative to DMSO control,[3],only hpol κ activity was inhibited
same,polymerase activity relative to DMSO control,[4],only hpol κ was inhibited
same,glioma spheroid growth rate,[5],inhibits glioma spheroid growth rate on its own and also enhances the effects of TMZ
